From patent US5977165A, “Radicicol derivatives” (Kyowa Hakko Kogyo Co., Ltd., priority 1995, dated 1999)
Converted amounts (≈) assume the structure as drawn. Where two headings read alike, the source gives them in different places.

Assays:
[1] = tested on: Candida albicans ATCC 10231; test: Antibacterial activity test (agar dilution method); format: cell-based; conditions: ATCC10231, pH 7, Candida albicans ATCC 10231, read-out: Minimum growth inhibition concentration (MIC), CA
Experimental: (§1) Antibacterial Activity Test
(§2) the antibacterial activity was measured by an agar dilution method using a medium (pH 7) which has been prepared by dissolving 3 g of Bacto-Tryptone (manufactured by Difco), 3 g of meat extract, 1 g of yeast extract, 1 g of flucose and 16 g of agar in 1 l of water. The antibacterial activity was expressed by minimum growth inhibition concentration (MIC).
CA: Candida albicans ATCC 10231

T cell growth = T cell growth inhibition test by mixed mouse lymphocyte culture reaction; format: cell-based; conditions: 72 hours, 37° C., [^3 H]-thymidine incorporation, AKR spleen / B10.BR lymph node cells
Experimental: T Cell Growth Inhibition Test by Mixed Mouse Lymphocyte Culture Reaction
The spleen was excised aseptically from an AKR mouse (Japan SLC Co., Ltd.) and made into a single cell suspension. The suspension was mixed with mitomycin C (MMC) (Kyowa Hakko Kogyo Co., Ltd.) (final concentration, 50 μg/ml) and cultured at 37° C. for 30 minutes. After the culturing, the cells were washed three times with a solution (HBSS) prepared by adding 2.5% fetal calf serum (FCS, Gibco Co.) to Hanks' balanced salt solution (Gibco Co.) and then adjusted to a density of 1×10^7 cells/ml.
A 50 μl portion of B10.BR mouse (Japan SLC Co., Ltd.) lymph node cell suspension (containing 1.5×10^5 cells), 50 μl of AKR mouse spleen cell suspension (containing 5×10^5 cells) and 100 μl of radicicol solution having each test concentration were added to each well of a 96 well microtiter plate and cultured at 37° C. for 72 hours in a CO2 incubator. A 1.0 μCi portion of [^3 H]-thymidine was added 18 hours before the completion of the culturing. After completion of the culturing, the cells were trapped on a filter paper using a cell harvester and dried, and then a toluene scintillator was added thereto to measure the amount of radioactivity of [^3 H]-thymidine incorporated into cells using a scintillation counter (test group). As a control group, the same culturing was carried out without adding the solution of Compound (I) and then the amount of radioactivity of [^3 H]-thymidine incorporated into cells was measured. The T cell growth inhibition ratio was calculated based on the following formula, from which the concentration of each test compound that inhibits 50% of the growth (IC50 was calculated. [formula] (In the above formula, the radioactivity in MMC-treated AKR mouse means the radiation dose of [^3 H]-thymidine incorporated into MMC-treated AKR mouse spleen cells, and the radioactivity in B10.BR mouse means the radiation dose of [^3 H]-thymidine incorporated into B10.BR mouse lymph node cells.)

sarcoma 180 solid tumor = test: Antitumor test on sarcoma 180 solid tumors; format: in vivo, mouse; conditions: ddY mice, intravenous injection 24 hours after s.c. transplantation, tumor volume at 7 days; dose not given
Experimental: Antitumor Test on Sarcoma 180 Solid Tumors
Seven days after transplantation of 5×10^6 of sarcoma 180 cells into the abdominal cavity of a ddY mouse, the cells were collected from the ascitic fluid, washed once with sterilized physiological saline and then made into a cell suspension of 5×10^7 cells/ml using sterilized physiological saline. A 0.1 ml portion of the cell suspension was transplanted under the skin of the right side axillary part of ddY mice of 20±2 g in body weight and, after 24 hours of the tumor transplantation, 0.1 to 0.2 ml of each test compound dissolved in physiological saline or polyoxyethylene sorbitan monolaurate-containing physiological saline was administered by intravenous injection to ddY mice of 5 animals per group. The major axis (a) and the minor axis (b) of each tumor 7 days after the transplantation were measured to calculate the tumor volume as an a×b^2 /2 value. Antitumor activity of each test compound was expressed by the ratio (T/C) of the tumor volume (T) of the test compound-administered group to the tumor volume (C) of the control group in which the drug was not administered.

HeLa S3 cells = test: Cell growth inhibition test on HeLa S3 cells; format: cell-based; conditions: Homo sapiens, read-out: IC50, cell growth inhibition activity upon HeLa S3 cells
Experimental: Cell Growth Inhibition Test on HeLa S3 Cells
HeLa S3 cells which have been adjusted to 3.0×10^4 cells/ml with MEM medium (manufactured by Nissui Pharmaceutically containing 10% fetal calf serum and 2 mM […] were dispensed in 0.1 ml/well portions into a 96 well microtiter plate. The cells were cultured at 37° C. for 20 hours in a carbon dioxide gas incubator, the culture supernatant was removed and then the plate was washed once with physiological saline. Next, 0.1 ml of the medium containing each test compound was added to each well, and the cells were cultured at 37° C. for 72 hours in the carbon dioxide gas incubator. After removing the culture supernatant, 0.1 ml of the medium containing 0.02% Neutral Red was added to each well, and the cells were stained at 37° C. for 1 hour in the carbon dioxide gas incubator. After removing the culture supernatant, the plate was washed once with physiological saline, the pigment was extracted with 0.001 N hydrochloric acid/30% ethanol and then absorption at 550 nm was measured by a microplate reader. The concentration of each test compound which inhibits 50% of the cell growth (IC50) was calculated by comparing the absorption of un-treated cells with that of the cells treated with known concentration of each sample.

[2] = tested on: Eacillus subtilis No. 10707; test: Antibacterial activity test (agar dilution method); format: cell-based; conditions: pH 7, Eacillus subtilis No. 10707, read-out: Minimum growth inhibition concentration (MIC), BS
Experimental: as §1, §2
BS: Eacillus subtilis No. 10707

P388 leukemia = test: Antitumor test on P388 leukemia; format: in vivo, mouse; conditions: CDF1 mice, 1×10^6 P388 cells i.p., compound into abdominal cavity 24 hours after transplantation, 30 days; dose not given
Experimental: Antitumor Test on P388 Leukemia
The ascitic fluid was collected from the abdominal cavity of P388 ascites-induced mouse (DBA/2) 7 days after the transplantation. The number of P388 cells in the ascitic fluid was counted to prepare a tumor cell suspension of 5×10^6 cells/ml using sterilized physiological saline, and its 0.2 ml portion (containing 1×10^6 cells) was transplanted into the abdominal cavity of CDF1 mice having 20 to 25 g in body weight. […] Effects of the test compounds were judged by the ratio of average survival days in the test compound-administered group to that in the control group (un-treated group) (increased life span, ILS %).

[3] = tested on: intracellular tyrosine kinase (v-Src tyrosine kinase, SR-3Y1 cells); test: Inhibition test of intracellular tyrosine kinase (tyrosine phosphorylation, Western blotting, SR-3Y1 cells); format: cell-based; conditions: Rattus norvegicus, SR3Y1, 37° C., 15 hours, tyrosine-phosphorylated protein, read-out: IC50, inhibitory activity of intracellular tyrosine kinase
Text: The inhibitory effect of the tyrosine kinase activity can be measured by carrying out Western blotting analysis with an anti-phosphotyrosine antibody using a rat fibroblast cell strain SR-3Y1 transformed with an oncogene v-Src (available from RIKEN Gene Bank) and calculating the amount of intracellular protein in which tyrosine is phosphorylated. Since the tyrosine phosphorylation level of intracellular protein in SR-3Y1 cells for use in this method is increased by v-Src tyrosine kinase, the ability of radicicol derivatives to inhibit v-Src tyrosine kinase can be detected as reduction of the amount of protein in which tyrosine is phosphorylated. Robinson, S. P. et al. [International Journal of Oncology, 2, 253 (1993)] report a method for examination of tyrosine phosphorylation inhibition effect by Western blotting analysis, and Kwon, H. J. et al. [Cancer Research, 52, 6926 (1992)] report examples of experiment using SR-3Y1 cells.
Inhibition Test of Intracellular Tyrosine Kinase
SR-3Y1 cells were cultured at 37° C. for 15 hours in an atmosphere of 5% carbon dioxide, using Dulbecco's modified Eagle's medium (DMEM) containing 10% fetal calf serum (FCS), to which each radicicol derivative to be tested has been added in varied concentration. The thus cultured cells were lysed at 4° C. for 20 minutes in a cooled buffer solution for lysis use (50 mM Tris HCl, pH 7.5, 150 mM NaCl, 1% Triton X-100, 0.1% SDS, 1% sodium deoxycholate, 2 mM EDTA, 1 mM PMSF, 20 μM leupeptin, 0.15 unit/ml aprotinin, 1 mM Na3 VO4) and then centrifuged at 20,000 g for 30 minutes. After measuring protein concentration in the resulting supernatant fluid, samples were adjusted to the same protein quantity per lane to carry out separation of protein by SDS-PAGE. The thus separated protein samples were transferred onto a nitrocellulose membrane to which were subsequently added a mouse […] phosphotyrosine antibody MX-pTYR (Kyowa Medex Co., Ltd.) as a first antibody and a horseradish peroxidase-conjugated […] (BIO-RAD Co.) as a second antibody, thereby effecting their reactions with the protein samples on the membrane. Detection was carried out using ECL reagent (Amersham Co.), and the amount of tyrosine-phosphorylated protein was determined by scanning the density of banks obtained on an X-ray film. The activity of radicicol derivative to inhibit tyrosine phosphorylation can be shown as a concentration (IC50) of each derivative by which the ratio of tyrosine-phosphorylated protein is reduced to half in comparison with a control to which the drug is not added.

[4] = tested on: Enterococcus hirae ATCC 10541; format: cell-based; conditions: pH 7
Experimental: as §1, §2
EH: Enterococcus hirae ATCC 10541

[5] = HeLa S3, 72 hours, 37° C., Neutral Red

MIC [2] | Compound | IC50 (T cell growth) | IC50 [3] | IC50 (HeLa S3 cells; [5]) | also measured
– | CC(=O)Oc1cc(OC(C)=O)c2c(c1Cl)CC(=O)/C=C/C=C\C(Cl)[C@H](OC=O)C[C@@H](C)OC2=O (some centres unmarked) [Compound 6] | – | – | 5000 nM | –
– | CCCCCCCCCCCCCCCC(=O)Oc1cc(OC(=O)CCCCCCCCCCCCCCC)c2c(c1Cl)CC(=O)/C=C/C=C\C(Br)[C@H](O)C[C@@H](C)OC2=O (some centres unmarked) [Compound 19] | 150 nM | – | – | –
– | COCON=C1/C=C/C=C\[C@H]2O[C@@H]2C[C@@H](C)OC(=O)c2c(O)cc(O)c(Cl)c2C1 [Compound 13] | – | – | 20 nM | –
– | C[C@@H]1C[C@H]2O[C@@H]2/C=C\C=C\C(=NO)Cc2c(Cl)c(O[Si](C)(C)C(C)(C)C)cc(O[Si](C)(C)C(C)(C)C)c2C(=O)O1 [Compound 11] | – | 20 nM | – | IC50 (HeLa S3 cells; HeLa S3, 72 h): 120 nM
– | C[C@@H]1C[C@@H](O)C(Cl)/C=C\C=C\C(=O)Cc2c(Cl)c(O)cc(O)c2C(=O)O1 (some centres unmarked) [Compound 2] | – | – | – | T/C (tumor volume ratio) (sarcoma 180 solid tumor): 50%
– | C[C@@H]1C[C@H]2O[C@@H]2/C=C\C=C\C(=NOCCCN=[N+]=[N-])Cc2c(Cl)c(O)cc(O)c2C(=O)O1 [Compound 14] | – | < 50 nM | 50 nM | –
83 µg/mL (≈ 193 µM) | C[C@@H]1C[C@@H](OC=O)C(Cl)/C=C\C=C\C(=O)Cc2c(Cl)c(O)cc(O)c2C(=O)O1 (some centres unmarked) [Compound 1] | – | – | – | T/C (tumor volume ratio) (sarcoma 180 solid tumor): 51%; increased life span (ILS) (P388 leukemia): 38%
– | C[C@@H]1C[C@H]2O[C@@H]2/C=C\C=C\C(=NO)Cc2c(Cl)c(O)cc(O)c2C(=O)O1 [Compound 8] | 10 nM | 20 nM | 90 nM | –
– | C[C@@H]1C[C@H]2O[C@@H]2/C=C\C=C\C(=O)Cc2c(Cl)c(O[Si](C)(C)C(C)(C)C)cc(O[Si](C)(C)C(C)(C)C)c2C(=O)O1 [Compound 10] | – | 150 nM | 3200 nM | –
1.3 µg/mL (≈ 1.53 µM) | CC1CC(OS(=O)OC2CC(C)OC(=O)c3c(O)cc(O)c(Cl)c3CC(=O)C=CC=CC2Cl)C(Cl)C=CC=CC(=O)Cc2c(Cl)c(O)cc(O)c2C(=O)O1 (centres unmarked) [Compound 4] | – | – | 6000 nM | MIC [1]: 2.6 µg/mL (≈ 3.06 µM); T/C (tumor volume ratio) (sarcoma 180 solid tumor): 39%; increased life span (ILS) (P388 leukemia): 42%; Minimum growth inhibition concentration (MIC), EH [4]: 2.6 µg/mL
83 µg/mL (≈ 186 µM) | C[C@@H]1C[C@@H](O)C(Br)/C=C\C=C\C(=O)Cc2c(Cl)c(O)cc(O)c2C(=O)O1 (some centres unmarked) [Compound 3] | 300 nM | – | – | increased life span (ILS) (P388 leukemia): 46%
– | CC(=O)Oc1cc(OC(C)=O)c2c(c1Cl)CC(=O)C=CC=CC(Cl)C(OS(=O)OC1CC(C)OC(=O)c3c(OC(C)=O)cc(OC(C)=O)c(Cl)c3CC(=O)C=CC=CC1Cl)CC(C)OC2=O (centres unmarked) [Compound 7] | – | – | 1500 nM | –

Compound | MIC [2] | IC50 (T cell growth) | IC50 [3] | IC50 (HeLa S3 cells; [5]) | also measured
C[C@@H]1C[C@H]2O[C@@H]2/C=C\C=C\C(=O)Cc2c(Cl)c(O)cc(O)c2C(=O)O1 [Radicicol, radicicol] | 83 µg/mL (≈ 228 µM) | 150 nM | 180 nM | – | MIC [1]: 20 µg/mL (≈ 54.8 µM); T/C (tumor volume ratio) (sarcoma 180 solid tumor): 88%; IC50 (HeLa S3 cells; HeLa S3, 72 h): 6700 nM; increased life span (ILS) (P388 leukemia): 27%
CON=C1/C=C/C=C\[C@H]2O[C@@H]2C[C@@H](C)OC(=O)c2c(O)cc(O)c(Cl)c2C1 [Compound 9] | 52 µg/mL (≈ 132 µM) | 20 nM | < 50 nM | 50 nM | MIC [1]: 6.5 µg/mL (≈ 16.5 µM)
